Patent US20240238422A1 (Osprey Biopharmaceuticals, Inc., priority 2021, published 2024)

How the values were obtained:
[1] = test system: Siglec-2 (CD22); conditions: SAM for Siglec-2 (CD22); value of the cited reference; cited from earlier work
[2] = biological target: T1, mouse CD22 (Mus musculus, UniProt P35329); assay: SPR binding of synthetic Siglec ligands to mouse CD22 ectodomain (Biacore 8K+); conditions: for Mouse Siglec-2 Binding Affinity: grade in words for the conjugatable Siglec ligand-linker
T1 construct: synthetic Siglec ligands for recombinant human and mouse CD22 ectodomains
T1 sequence (P35329 22-708 limits assumed): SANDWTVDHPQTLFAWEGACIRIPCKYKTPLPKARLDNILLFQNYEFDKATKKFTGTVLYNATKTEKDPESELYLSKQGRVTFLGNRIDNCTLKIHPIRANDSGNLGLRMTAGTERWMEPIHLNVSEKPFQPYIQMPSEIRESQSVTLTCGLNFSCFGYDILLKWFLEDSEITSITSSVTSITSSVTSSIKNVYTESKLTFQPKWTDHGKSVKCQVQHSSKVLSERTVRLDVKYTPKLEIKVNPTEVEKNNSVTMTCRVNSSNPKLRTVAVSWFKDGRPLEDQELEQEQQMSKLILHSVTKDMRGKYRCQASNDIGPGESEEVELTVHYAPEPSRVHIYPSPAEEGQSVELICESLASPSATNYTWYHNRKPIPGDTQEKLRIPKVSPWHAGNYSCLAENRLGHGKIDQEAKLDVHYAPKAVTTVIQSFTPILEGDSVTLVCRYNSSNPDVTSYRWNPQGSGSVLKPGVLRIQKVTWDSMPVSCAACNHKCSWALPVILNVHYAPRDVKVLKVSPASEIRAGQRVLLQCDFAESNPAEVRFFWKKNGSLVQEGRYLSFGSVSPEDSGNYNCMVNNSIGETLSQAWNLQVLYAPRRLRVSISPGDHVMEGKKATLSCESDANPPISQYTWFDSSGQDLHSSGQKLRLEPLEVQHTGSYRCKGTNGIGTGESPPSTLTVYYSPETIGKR
Description: (§1) The following ligands were evaluated for mouse and human CD22 binding: 1) BPC-Neu5Gc PEG (Cpd. No. 26463), 2) BPC-Neu5Gc GAL (Cpd. No. 26339), 3) MPB-Neu5Ac PEG (Cpd. No. 26334), 4) MPB-Neu5Ac GAL (Cpd. No. 26409), 5) Neu5Gc PEG (Cpd. No. 26591). All tested compounds are alkyne-terminating precursors of PFP-terminating, conjugatable Siglec Linker structures used in conjugates in the following examples.
(§2) Binding assays for synthetic CD22 ligand binding to CD22 receptor ectodomain were run on a Biacore 8K+ instrument (Cytiva). Surface preparation for CD22 conjugates binding to human or mouse CD22 protein consisted of two steps, covalent immobilization of streptavidin followed by capture of Avi-tagged and biotinylated human CD22-Fc fusion (R&D Systems, Cat #AV11968-050) and a mono-Fc fusion of mouse CD22. Using standard amine coupling protocols, Streptavidin (Invitrogen, Cat #: 434301) was immobilized to a Cytiva CM5 chip (Cytiva, Cat #BR100530) by injecting at 100 ug/mL in Sodium Acetate, pH 4.5 (Cytiva, Cat #BR100350) on both flow cells, yielding a final response of 2500 RU. Capture of biotinylated mono Fc human CD22 was performed on channels 1-4 and mouse CD22 on channels 5-8 on the active flow cell (2) and the reference flow cell (1) was kept as unmodified streptavidin to account for any non-specific binding. Human CD22 or mouse CD22 (mono-Fc fusion, 5 μg/mL) was injected on the active flow cell (2) for 90 seconds at 5 μL/min, yielding about 210 RU of captured constructs.
(§3) Binding experiments of Siglec-ligand conjugated proteins were performed on the surfaces prepared above in HBS-EP+ (10 mM HEPES, 150 mM NaCl, 3 mM EDTA, 0.05% Tween-20, pH 7.5) as the running buffer. Conjugates were serially diluted 1:1 in running buffer from 1 μM to 31.25 nM and injected over both the reference and active flow cells for 90 seconds at 30 μL/min. The conjugates were then allowed to dissociate from the surface for 300 seconds. No regeneration was required as the conjugates completely dissociated from the surface after 30 seconds.

[3] = biological target: T2, human CD22 (Homo sapiens, UniProt P20273); assay: SPR binding of synthetic Siglec ligands to human CD22 ectodomain (Biacore 8K+); conditions: for Human Siglec-2 Binding Affinity: grade in words for the conjugatable Siglec ligand-linker
T2 construct: Fc (human CD22-Fc fusion); purchased R&D Systems AV11968-050
Description: as §1, §2, §3

T2 sequence (P20273 20-687 limits assumed): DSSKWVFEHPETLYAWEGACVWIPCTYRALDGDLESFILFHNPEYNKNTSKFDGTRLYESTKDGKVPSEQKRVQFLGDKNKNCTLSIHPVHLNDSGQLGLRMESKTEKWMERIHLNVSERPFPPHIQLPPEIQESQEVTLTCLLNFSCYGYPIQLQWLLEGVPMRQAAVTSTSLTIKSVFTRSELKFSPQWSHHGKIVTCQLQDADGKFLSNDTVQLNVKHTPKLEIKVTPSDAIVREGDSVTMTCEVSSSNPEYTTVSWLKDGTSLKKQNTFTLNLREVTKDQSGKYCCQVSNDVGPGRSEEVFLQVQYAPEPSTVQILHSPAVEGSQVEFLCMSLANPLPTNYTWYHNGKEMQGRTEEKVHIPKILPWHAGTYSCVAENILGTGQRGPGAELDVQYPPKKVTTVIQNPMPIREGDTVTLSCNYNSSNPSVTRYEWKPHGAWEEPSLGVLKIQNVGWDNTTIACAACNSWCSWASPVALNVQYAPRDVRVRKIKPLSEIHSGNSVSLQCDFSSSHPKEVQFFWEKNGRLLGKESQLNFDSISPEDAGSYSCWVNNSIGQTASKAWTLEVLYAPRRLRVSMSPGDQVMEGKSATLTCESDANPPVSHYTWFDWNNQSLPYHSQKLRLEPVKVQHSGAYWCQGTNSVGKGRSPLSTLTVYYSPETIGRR

SMILES	Mouse Siglec-2 Binding Affinity [2]	Human Siglec-2 Binding Affinity [3]	further results
CO[C@]1(C(=O)O)CC(O)[C@@H](NC(C)=O)C([C@H](O)[C@H](O)CNC(=O)c2ccc(-c3ccccc3)cc2)O1 (stereo partly shown)	–	–	IC50 [1]: 4 µM
O=C(Cc1ccc(-c2ccc(O)cc2)cc1)NC[C@@H](O)C(O)C1O[C@@](OCc2cccc(Cl)c2Cl)(C(=O)O)CC(O)[C@H]1NS(=O)(=O)c1ccccc1[N+](=O)[O-] (stereo partly shown)	–	–	IC50 [1]: 0.06 µM
CC(=O)N[C@H]1[C@H]([C@H](O)[C@H](O)CNC(=O)c2cccc(Oc3ccccc3)c2)O[C@@](OCCOCc2cn(CCOCCOCCC(=O)NCCCC[C@H](NC(=O)CCCNC(=O)CCOCCOCCn3cc(COCCO[C@]4(C(=O)O)C[C@H](O)[C@@H](NC(C)=O)[C@H]([C@H](O)[C@H](O)CNC(=O)c5cccc(Oc6ccccc6)c5)O4)nn3)C(=O)NCCOCCOCCOCCOCCC(=O)Oc3c(F)c(F)c(F)c(F)c3F)nn2)(C(=O)O)C[C@@H]1O [Cpd. No. 26289, (2R,2′R,4S,4′S,5R,5′R,6R,6′R)-2,2′-(((((((S)-9,14,22-trioxo-16-((15-oxo-15-(perfluorophenoxy)-3,6,9,12-tetraoxapentadecyl)carbamoyl)-3,6,25,28-tetraoxa-10,15,21-triazatriacontane-1,30-diyl)bis(1H-1,2,3-triazole-1,4-diyl))bis(methylene))bis(oxy))bis(ethane-2,1-diyl))bis(oxy))bis(5-acetamido-6-((1R,2R)-1,2-dihydroxy-3-(3-phenoxybenzamido)propyl)-4-hydroxytetrahydro-2H-pyran-2-carboxylic acid)]	V. weak	Strong	–
CC(=O)N[C@H]1[C@H]([C@H](O)[C@H](O)CNC(=O)c2cccc(Oc3ccccc3)c2)O[C@@](OCCOCCOCc2cn(CCOCCOCCOCCOCCC(=O)Oc3c(F)c(F)c(F)c(F)c3F)nn2)(C(=O)O)C[C@@H]1O [Cpd. No. 24836, (2R,4S,5R,6R)-5-acetamido-6-((1R,2R)-1,2-dihydroxy-3-(3-phenoxybenzamido)propyl)-4-hydroxy-2-(2-(2-((1-(15-oxo-15-(perfluorophenoxy)-3,6,9,12-tetraoxapentadecyl)-1H-1,2,3-triazol-4-yl)methoxy)ethoxy)ethoxy)tetrahydro-2H-pyran-2-carboxylic acid]	V. weak	Strong	–
CO[C@]1(C(=O)O)CC(NS(=O)(=O)c2ccc(C)cc2)[C@@H](NC(C)=O)C([C@H](O)[C@H](O)CNC(=O)c2ccc(-c3ccccc3)cc2)O1 (stereo partly shown)	–	–	IC50 [1]: 0.15 µM
O=C(CCOCCOCCn1cc(COCCOCCO[C@]2(C(=O)O)C[C@H](O)[C@@H](NC(=O)CO)[C@H]([C@H](O)[C@H](O)CO)O2)nn1)NCCCC[C@@H](CN[C@@H](CCCCNC(=O)CCOCCOCCn1cc(COCCOCCO[C@]2(C(=O)O)C[C@H](O)[C@@H](NC(=O)CO)[C@H]([C@H](O)[C@H](O)CO)O2)nn1)C(=O)NCCOCCOCCOCCOCCC(=O)Oc1c(F)c(F)c(F)c(F)c1F)NC(=O)CCCNCCCOCCOCCn1cc(COCCOCCO[C@]2(C(=O)O)C[C@H](O)[C@@H](NC(=O)CO)[C@H]([C@H](O)[C@H](O)CO)O2)nn1 [Cpd. No. 26616]	Weak	Weak	–
O=C(Cc1ccc(-c2ccccc2)cc1)NC[C@@H](O)[C@@H](O)[C@@H]1O[C@@](OC[C@H]2O[C@@H](OCCc3cn(CCOCCOCCOCCOCCC(=O)Oc4c(F)c(F)c(F)c(F)c4F)nn3)[C@H](O)[C@@H](O)[C@H]2O)(C(=O)O)C[C@H](O)[C@H]1NC(=O)CO [Cpd. No. 26415, (2R,4S,5R,6R)-6-((1R,2R)-3-(2-([1,1′-biphenyl]-4-yl)acetamido)-1,2-dihydroxypropyl)-4-hydroxy-5-(2-hydroxyacetamido)-2-(((2R,3R,4S,5R,6R)-3,4,5-trihydroxy-6-(2-(1-(15-oxo-15-(perfluorophenoxy)-3,6,9,12-tetraoxapentadecyl)-1H-1,2,3-triazol-4-yl)ethoxy)tetrahydro-2H-pyran-2-yl)methoxy)tetrahydro-2H-pyran-2-carboxylic acid]	Strong	Strong	–
CC(=O)N[C@H]1[C@H]([C@H](O)[C@H](O)CNC(=O)c2cccc(Oc3ccccc3)c2)O[C@@](OC[C@H]2O[C@@H](OCCc3cn(CCOCCOCCC(=O)NCCCC[C@H](NC(=O)CCCNC(=O)CCOCCOCCn4cc(CCO[C@@H]5O[C@H](CO[C@]6(C(=O)O)C[C@H](O)[C@@H](NC(C)=O)[C@H]([C@H](O)[C@H](O)CNC(=O)c7cccc(Oc8ccccc8)c7)O6)[C@H](O)[C@H](O)[C@H]5O)nn4)C(=O)NCCOCCOCCOCCOCCC(=O)Oc4c(F)c(F)c(F)c(F)c4F)nn3)[C@H](O)[C@@H](O)[C@H]2O)(C(=O)O)C[C@@H]1O (mixture of isomers) [Cpd. No. 26468]	V. weak	Strong	–
O=C(CCOCCOCCn1cc(COCCOCCOCCOCCO)nn1)NCCCC[C@@H](NC(=O)CCCNC(=O)CCOCCOCCn1cc(COCCOCCOCCOCCO)nn1)C(=O)N[C@H](CCCCNC(=O)CCOCCOCCn1cc(COCCOCCOCCOCCO)nn1)C(=O)NCCOCCOCCOCCOCCC(=O)Oc1c(F)c(F)c(F)c(F)c1F [Cpd. No. 26534, perfluorophenyl (16R,19R)-1-(4-(13-hydroxy-2,5,8,11-tetraoxatridecyl)-1H-1,2,3-triazol-1-yl)-16,19-bis(4-(3-(2-(2-(4-(13-hydroxy-2,5,8,11-tetraoxatridecyl)-1H-1,2,3-triazol-1-yl)ethoxy)ethoxy)propanamido)butyl)-9,14,17,20-tetraoxo-3,6,24,27,30,33-hexaoxa-10,15,18,21-tetraazahexatriacontan-36-oate]	No Binding	No Binding	–
C#CCOCCOCCO[C@]1(C(=O)O)C[C@H](O)[C@@H](NC(=O)CO)[C@H]([C@H](O)[C@H](O)CO)O1 [Cpd. No. 26591, (2R,4S,5R,6R)-4-hydroxy-5-(2-hydroxyacetamido)-2-(2-(2-(prop-2-yn-1-yloxy)ethoxy)ethoxy)-6-((1R,2R)-1,2,3-trihydroxypropyl)tetrahydro-2H-pyran-2-carboxylic acid]	–	–	Kd ([2]; SPR, alkyne-terminating precursors of the PFP linkers, read-out: Mouse Siglec-2 Binding Affinity): > 1000 µM; Kd ([3]; SPR, alkyne-terminating precursors of the PFP linkers, read-out: Human Siglec-2 Binding Affinity): > 450 µM
O=C(Cc1ccc(-c2ccccc2)cc1)NC[C@@H](O)[C@@H](O)[C@@H]1O[C@@](OCCOCCOCc2cn(CCOCCOCCOCCOCCC(=O)Oc3c(F)c(F)c(F)c(F)c3F)nn2)(C(=O)O)C[C@H](O)[C@H]1NC(=O)CO [Cpd. No. 26288, (2R,4S,5R,6R)-6-((1R,2R)-3-(2-([1,1′-biphenyl]-4-yl)acetamido)-1,2-dihydroxypropyl)-4-hydroxy-5-(2-hydroxyacetamido)-2-(2-(2-((1-(15-oxo-15-(perfluorophenoxy)-3,6,9,12-tetraoxapentadecyl)-1H-1,2,3-triazol-4-yl)methoxy)ethoxy)ethoxy)tetrahydro-2H-pyran-2-carboxylic acid]	Strong	Strong	–
